From patent US20210387966A1, “2-AMINO-N-HETEROARYL-NICOTINAMIDES AS NAV1.8 INHIBITORS” (Merck Sharp & Dohme Corp., priority 2018, published 2021)

Target: T1, human Nav1.8 channels (Homo sapiens, UniProt Q9Y5Y9)
T1 construct: expressed in transfected cells
Assay: Nav1.8 Qube automated patch-clamp assay
Format: cell-based
Conditions: human Nav1.8 stably expressed in HEK 293 cells; whole-cell voltage clamp, room temperature; resting or inactivated state not specified; read-out: IC50 values (nM) for Examples in the Nav1.8 Qube Assay
Protocol: Compounds were tested on human Nav1.8 and Nav1.5 channels stably expressed in human embryo kidney (HEK) 293 cells. Sodium current measurements on Qube® were conducted as follows: automated 384-well patch-clamp assays on the Qube® platform (Sophion Biosciences) were used to measure the inhibition of sodium flow through human Nav1.8 and Nav1.5 channels. Whole-cell voltage-clamp recordings were performed in QChips® (Sophion Biosciences) at room temperature. Nav1.8 current measurements on Qube® were obtained as follows: Nav1.8 currents were elicited with a 10 second 1 Hertz (Hz) pulse train from a holding potential of −90 millivolts (mV), delivered to the cells once per minute in the control condition (DMSO only) and after compound addition. The 1 hertz pulse train stimulation consisted of ten test pulses to 10 millivolt (mV) for 20 milliseconds (ms), each of which was followed by a 980 millisecond repolarization to −67 millivolts. At the end of the 10 second pulse train stimulation, a second hyperpolarization step to −100 millivolt (mV) was used to recover Nav1.8 from fast inactivation. The peak currents elicited by the 1st and 10th test pulses were used to determine IC50 values for resting inhibition and inactivated state inhibition. Nav1.5 current measurements on Qube® were obtained as follows: Nav1.5 currents were elicited with a 20 second 3 Hertz pulse train in the control condition (DMSO only) and after compound addition. The pulse train consisted of sixty 20 millisecond test pulses to 0 millivolt from a holding potential of −80 millivolt (mV). The average peak currents elicited by the last 3 test pulses were used to determine IC50 values for Nav1.5 inhibition.
The following buffers were used for the Qube® recordings: External buffer for Nav1.8 Qube® recording: 150 NaCl, 2 CaCl2, 5 KCl, 1 Mg Cl2, 10 HEPES, 12 Dextrose; External buffer for Qube® Nav1.5 recording: 120 N-Methyl-D-Glucamine, 40 NaCl, 1 KCl, 2.7 CaCl2, 5 HEPES, 0.5 MgCl2: and Internal buffer for Qube® recording: 120 CsF, 30 CsCl, 10 EGTA, 5 HEPES, 5 NaF, 2 MgCl2.
For all Qube® experiments offline analysis was used to determine percent inhibition as a function of drug concentration. IC50 values were determined by fitting to the Hill equation.

T1 sequence (Q9Y5Y9 whole entry): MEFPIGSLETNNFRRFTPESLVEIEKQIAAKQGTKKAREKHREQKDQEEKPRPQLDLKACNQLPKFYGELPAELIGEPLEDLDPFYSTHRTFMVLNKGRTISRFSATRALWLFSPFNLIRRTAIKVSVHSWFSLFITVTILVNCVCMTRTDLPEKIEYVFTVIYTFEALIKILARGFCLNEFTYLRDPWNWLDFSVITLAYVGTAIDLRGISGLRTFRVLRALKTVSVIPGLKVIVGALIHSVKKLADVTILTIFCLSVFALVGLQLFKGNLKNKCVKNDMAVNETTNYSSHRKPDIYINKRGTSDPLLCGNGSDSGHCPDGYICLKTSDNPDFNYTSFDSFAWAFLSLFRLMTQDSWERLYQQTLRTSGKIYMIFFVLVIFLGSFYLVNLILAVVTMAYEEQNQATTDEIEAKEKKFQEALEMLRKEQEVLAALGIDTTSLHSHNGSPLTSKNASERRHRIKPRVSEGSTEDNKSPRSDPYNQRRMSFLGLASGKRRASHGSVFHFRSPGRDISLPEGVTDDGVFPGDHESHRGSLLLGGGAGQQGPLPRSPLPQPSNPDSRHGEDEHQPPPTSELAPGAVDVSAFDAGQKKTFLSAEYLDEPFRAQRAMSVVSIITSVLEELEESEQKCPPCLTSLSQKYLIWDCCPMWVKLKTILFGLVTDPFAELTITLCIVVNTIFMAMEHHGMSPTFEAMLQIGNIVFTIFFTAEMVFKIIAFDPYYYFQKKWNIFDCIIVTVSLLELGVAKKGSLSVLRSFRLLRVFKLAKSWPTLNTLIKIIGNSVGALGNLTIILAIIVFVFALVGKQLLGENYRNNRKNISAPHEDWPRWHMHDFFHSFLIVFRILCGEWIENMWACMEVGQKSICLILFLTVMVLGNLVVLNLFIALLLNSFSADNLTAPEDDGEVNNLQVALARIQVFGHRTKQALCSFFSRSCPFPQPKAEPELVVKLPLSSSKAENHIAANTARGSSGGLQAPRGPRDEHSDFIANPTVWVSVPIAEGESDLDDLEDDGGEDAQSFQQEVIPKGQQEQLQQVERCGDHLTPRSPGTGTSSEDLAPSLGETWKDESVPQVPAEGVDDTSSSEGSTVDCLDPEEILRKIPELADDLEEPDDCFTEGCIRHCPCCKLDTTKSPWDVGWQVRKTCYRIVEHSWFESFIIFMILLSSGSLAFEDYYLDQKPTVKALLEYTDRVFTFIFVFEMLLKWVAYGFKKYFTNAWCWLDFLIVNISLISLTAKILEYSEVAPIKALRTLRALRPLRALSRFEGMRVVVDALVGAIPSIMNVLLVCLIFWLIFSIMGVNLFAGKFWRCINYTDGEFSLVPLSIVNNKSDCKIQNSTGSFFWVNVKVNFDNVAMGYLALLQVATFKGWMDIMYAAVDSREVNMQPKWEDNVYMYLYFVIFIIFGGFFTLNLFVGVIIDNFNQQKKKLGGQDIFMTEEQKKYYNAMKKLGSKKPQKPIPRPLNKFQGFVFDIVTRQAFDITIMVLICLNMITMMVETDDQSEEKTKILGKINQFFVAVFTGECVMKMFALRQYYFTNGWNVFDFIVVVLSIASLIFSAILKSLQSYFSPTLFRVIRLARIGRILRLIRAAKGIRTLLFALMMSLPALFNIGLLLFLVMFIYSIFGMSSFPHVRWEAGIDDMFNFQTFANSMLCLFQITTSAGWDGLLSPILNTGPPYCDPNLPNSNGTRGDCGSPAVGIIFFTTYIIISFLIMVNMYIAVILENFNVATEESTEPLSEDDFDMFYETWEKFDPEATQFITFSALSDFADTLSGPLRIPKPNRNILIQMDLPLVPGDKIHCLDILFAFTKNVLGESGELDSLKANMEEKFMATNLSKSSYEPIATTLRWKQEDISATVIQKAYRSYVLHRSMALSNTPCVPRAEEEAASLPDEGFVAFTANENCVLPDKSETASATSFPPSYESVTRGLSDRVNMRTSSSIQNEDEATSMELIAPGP

Structure (SMILES)	IC50 [nM]
O=C(Nc1cc[nH]c(=O)c1)c1cc(Cl)c(C2CC2)nc1N1CCCC(F)(F)CC1 [Example 27, 5-chloro-6-cyclopropyl-2-(4,4-difluoroazepan-1-yl)-N-(2-oxo-1,2-dihydropyridin-4-yl)nicotinamide]	31
NS(=O)(=O)c1cc(NC(=O)c2cc(C(F)(F)F)cnc2N2CC3CC2CC3(F)F)ccn1 (single isomer, unassigned) [Example 72, 2-[(1S,4S or 1R,4R)-5,5-difluoro-2-azabicyclo[2.2.1]heptan-2-yl]-N-(2-sulfamoyl-4-pyridyl)-5-(trifluoromethyl)pyridine-3-carboxamide]	714
CC1CN(c2ncc(C(F)(F)F)cc2C(=O)Nc2ccnc(S(C)(=O)=O)c2)CCC1(F)F (single isomer, unassigned) [Example 148, 2-[(3R or 3S)-4,4-difluoro-3-methyl-1-piperidyl]-N-(2-methylsulfonyl-4-pyridyl)-5-(trifluoro-methyl)pyridine-3-carboxamide]	26
N#Cc1cc(C(=O)Nc2ccnc(S(N)(=O)=O)c2)c(N2CCC(F)(F)CC2)nc1C(F)(F)F [Example 43, 5-cyano-2-(4,4-difluoropiperidin-1-yl)-N-(2-sulfamoylpyridin-4-yl)-6-(trifluoromethyl)nicotinamide]	37
NS(=O)(=O)c1cc(NC(=O)c2cnc(C3CC3)nc2N2CCCC(F)(F)CC2)ccn1 [Example 38, 2-cyclopropyl-4-(4,4-difluoroazepan-1-yl)-N-(2-sulfamoylpyridin-4-yl)pyrimidine-5-carboxamide]	24
O=C(Nc1nccc(O)n1)c1cc(C(F)(F)F)cnc1N1CCC(F)(F)CC1 [Example 2, 2-(4,4-difluoropiperidin-1-yl)-N-(4-hydroxypyrimidin-2-yl)-5-(trifluoromethyl)nicotinamide]	2190
NS(=O)(=O)c1cc(NC(=O)c2cc(N3CCCCC3)cnc2N2CCC(F)(F)CC2)ccn1 [Example 206, 2-(4,4-difluoropiperidin-1-yl)-5-(piperidin-1-yl)-N-(2-sulfamoylpyridin-4-yl)nicotinamide]	363
Cc1nc(N2CCC(F)(F)CC2)c(C(=O)Nc2ccnc(S(N)(=O)=O)c2)cc1C1CC1 [Example 14, 5-cyclopropyl-2-(4,4-difluoropiperidin-1-yl)-6-methyl-N-(2-sulfamoylpyridin-4-yl)nicotinamide]	45
N#Cc1cc(NC(=O)c2cc(C(F)(F)F)cnc2N2CCCCCC2)ccn1 [Example 197, 2-(azepan-1-yl)-N-(2-cyano-4-pyridyl)-5-(tri-fluoromethyl)pyridine-3-carboxamide]	244
CC1CN(c2ncc(C(F)(F)F)cc2C(=O)Nc2ccnc(C#N)c2)CCC1(F)F (single isomer, unassigned) [Example 155, (R or S)-N-(2-cyanopyridin-4-yl)-2-(4,4-difluoro-3-methylpiperidin-1-yl)-5-(trifluoro-methyl)nicotinamide]	60
Cc1nc(N2CCCC(F)(F)CC2)c(C(=O)N(C)c2ccnc(S(N)(=O)=O)c2)c(C)c1Cl [Example 214, 5-chloro-2-(4,4-difluoroazepan-1-yl)-N,4,6-trimethyl-N-(2-sulfamoylpyridin-4-yl)nicotinamide]	347
Cc1nc(N2CCOC(C(F)F)C2)c(C(=O)Nc2ccnc(S(N)(=O)=O)c2)cc1Cl (single isomer, unassigned) [Example 125, (R or S)-5-chloro-2-(2-(difluoromethyl)morpholino)-6-methyl-N-(2-sulfamoylpyridin-4-yl)nicotinamide]	144
Cc1sc(S(N)(=O)=O)cc1NC(=O)c1cc(C(F)(F)F)cnc1N1CCCCCC1 [Example 114, 2-(azepan-1-yl)-N-(2-methyl-5-sulfamoyl-thiophen-3-yl)-5-(trifluoromethyl)pyridine-3-carboxamide]	95
C[C@@H]1CN(c2ncc(C(F)(F)F)cc2C(=O)Nc2ccnc(S(N)(=O)=O)c2)CCC1(F)F (single isomer, unassigned) [Example 48]	12
O=C(O)c1cc(NC(=O)c2cc(C(F)(F)F)cnc2N2CCC(F)(F)CC2)ccn1 [Example 4, 4-(2-(4,4-difluoropiperidin-1-yl)-5-(trifluoromethyl)nicotinamido)picolinic acid]	5430
NS(=O)(=O)c1cc(NC(=O)c2cc(C(F)(F)F)cnc2N2CCOC(c3ccc(C(F)(F)F)cc3)C2)ccn1 (centres unmarked) [Example 91, N-(2-sulfamoyl-4-pyridyl)-5-(trifluoromethyl)-2-[2-[4-(trifluoromethyl)phenyl]morpholin-4-yl]pyridine-3-carboxamide]	616
NS(=O)(=O)c1cc(NC(=O)c2cc(C(F)(F)F)cnc2N2CC(F)(F)C(F)(F)C2)ccn1 [Example 92, N-(2-sulfamoyl-4-pyridyl)-2-(3,3,4,4-tetrafluoropyrrolidin-1-yl)-5-(trifluoromethyl)pyridine-3-carboxamide]	659
COc1cc(NC(=O)c2cc(C(F)(F)F)cnc2N2CCC3(CC2)CC3)ccn1 [Example 143, N-(2-methoxypyridin-4-yl)-2-(6-azaspiro[2.5]octan-6-yl)-5-(trifluoromethyl)-nicotinamide]	1540
CC1CCN(c2ncc(C(F)(F)F)cc2C(=O)Nc2ccnc(S(N)(=O)=O)c2)CCC1(F)F (centres unmarked) [Example 115, 2-(4,4-difluoro-5-methylazepan-1-yl)-N-(2-sulfamoylpyridin-4-yl)-5-(trifluoromethyl)pyridine-3-carboxamide]	1.6
N#Cc1cncc(NC(=O)c2cc(C(F)(F)F)cnc2N2CCCCCC2)c1 [Example 193, 2-(azepan-1-yl)-N-(5-cyano-3-pyridyl)-5-(trifluoromethyl)-pyridine-3-carboxamide]	654
Cc1nc(C2CCC(F)(F)CC2)c(C(=O)Nc2ccnc(S(N)(=O)=O)c2)c(C)c1Cl [Example 218, 5-chloro-2-(4,4-difluorocyclohexyl)-4,6-dimethyl-N-(2-sulfamoylpyridin-4-yl)nicotinamide]	2.4
CC1CC(F)(F)CCN1c1ncc(C(F)(F)F)cc1C(=O)Nc1ccnc(S(N)(=O)=O)c1 (single isomer, unassigned) [Example 73, (R or S)-2-(4,4-difluoro-2-methylpiperidin-1-yl)-N-(2-sulfamoylpyridin-4-yl)-5-(trifluoromethyl)nicotinamide]	225
Cc1nc(N2CCCCCC2)c(C(=O)Nc2ccnc(S(N)(=O)=O)c2)c(C)c1Cl [Example 201, 2-(azepan-1-yl)-5-chloro-4,6-dimethyl-N-(2-sulfamoylpyridin-4-yl)nicotinamide]	1.3
NS(=O)(=O)c1cc(NC(=O)c2cc(C(F)(F)F)cnc2N2CCC3C(C2)C3(F)F)ccn1 (single isomer, unassigned) [Example 70, 2-((1R,6R or 1S,6S)-7,7-difluoro-3-azabicyclo[4.1.0]heptan-3-yl)-N-(2-sulfamoylpyridin-4-yl)-5-(trifluoromethyl)nicotinamide]	41
NS(=O)(=O)c1cc(NC(=O)c2cc(C(F)(F)F)cnc2N2CCC(C(F)(F)F)C2)ccn1 (centres unmarked) [Example 128, N-(2-sulfamoylpyridin-4-yl)-5-(trifluoromethyl)-2-[3-(trifluoromethyl)pyrrolidin-1-yl]pyridine-3-carboxamide]	94
NS(=O)(=O)c1cc(NC(=O)c2cc(Br)cnc2N2CCC(F)(F)CC2)ccn1 [Example 204, 5-bromo-2-(4,4-difluoropiperidin-1-yl)-N-(2-sulfamoylpyridin-4-yl)nicotinamide]	55
